Assay results: patent US20240197900A1, “DISACCHARIDE LINKER, DISACCHARIDE-SMALL MOLECULE DRUG CONJUGATE AND SUGAR CHAIN FIXED-POINT ANTIBODY-DRUG CONJUGATE, AND PREPARATION METHOD THEREFOR AND USE THEREOF” (priority 2021, published 2024)

Biological target: Endo-S2 (Streptococcus pyogenes serotype M49, UniProt T1WGN1)
Assay: Screening of sugar substrates: transfer of oxazoline substrates to deglycosylated antibody by Endo-S2
Assay type: biochemical
Details: substrate 1.5 mM, (Fuc α1,6)GlcNAc-Herceptin 5 mg/mL, Endo-S2 0.2 mg/mL, 3 h; for recognition by / transfer activity of Endo-S2 (in words): 30° C., FIG. 1B
Procedure: Different sugar substrates (1 equivalent, including monosaccharide, disaccharide and trisaccharide structures) were weighed and dissolved in 50 mM PB, pH 7.0 buffer, CDMBI (5 equivalents) was added to the above system, mixed well and cooled to 0° C. Potassium phosphate (15 eq) was added, the final concentration of the sugar substrates in the reaction system was 10 mM, and the reaction was carried out at 0° C. for 2 h. Plenty of precipitate was observed, which was removed by centrifugation. The supernatant was oxazoline substrates G1, G12, G15-G20 containing salts, which were directly used for the next step of screening.
Oxazoline substrates (G1, G12, G15-G20), deglycosylated antibody (Fuc α1.6) GlcNAc-Herceptin and endoglycosidase Endo-S2 were sequentially added to 50 mM Tris-HCl, pH 7.2 buffer, such that the final concentrations of each were 1.5 mM, 5 mg/mL, and 0.2 mg/mL, respectively, which was incubated at 30° C. for 3 h for detection by mass spectrometry. At the same time, a control group without endoglycosidase was set to eliminate the influence of non-enzymatic reactions.

Endo-S2, sequence (T1WGN1 37-843): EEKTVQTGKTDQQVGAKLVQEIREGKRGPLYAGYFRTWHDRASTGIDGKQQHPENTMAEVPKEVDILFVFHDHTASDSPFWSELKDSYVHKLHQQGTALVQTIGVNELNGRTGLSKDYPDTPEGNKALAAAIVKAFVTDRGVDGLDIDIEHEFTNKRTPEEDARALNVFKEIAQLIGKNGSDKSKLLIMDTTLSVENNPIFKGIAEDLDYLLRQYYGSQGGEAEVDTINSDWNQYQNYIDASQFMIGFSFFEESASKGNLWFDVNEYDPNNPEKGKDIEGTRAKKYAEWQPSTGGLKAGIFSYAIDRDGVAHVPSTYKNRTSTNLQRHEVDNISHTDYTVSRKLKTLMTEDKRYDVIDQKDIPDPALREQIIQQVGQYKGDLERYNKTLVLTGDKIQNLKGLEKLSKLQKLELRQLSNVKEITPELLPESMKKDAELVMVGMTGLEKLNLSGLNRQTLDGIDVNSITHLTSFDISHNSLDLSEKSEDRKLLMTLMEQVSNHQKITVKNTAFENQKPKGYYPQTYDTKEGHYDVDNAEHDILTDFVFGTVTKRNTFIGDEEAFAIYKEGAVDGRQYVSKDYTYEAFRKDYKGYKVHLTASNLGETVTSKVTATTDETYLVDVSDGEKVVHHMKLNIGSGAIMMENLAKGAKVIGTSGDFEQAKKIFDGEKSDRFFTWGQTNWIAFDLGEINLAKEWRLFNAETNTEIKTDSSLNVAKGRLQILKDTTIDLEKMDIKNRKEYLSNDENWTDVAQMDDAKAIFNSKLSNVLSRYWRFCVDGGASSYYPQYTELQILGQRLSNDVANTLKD

Row | SMILES | transfer efficiency to the deglycosylated antibody (Tris-HCl pH 7.2, 30° C., mass spectrometry) | recognition by / transfer activity of Endo-S2 (in words)
1 | CC1=NC2[C@@H](O1)OC(CO)[C@@H](O[C@@H]1OC(CO)[C@H](O)[C@H](O)C1O)[C@@H]2O (stereo partly drawn) [G1] | 68% | –
2 | CC(=O)N[C@H]1C([C@H](O)[C@H](O)CO)O[C@@](OCC2O[C@@H](O[C@@H]3C(CO)O[C@@H]4OC(C)=NC4[C@H]3O)C(O)[C@@H](O)[C@H]2O)(C(=O)O)C[C@H]1O (stereo partly drawn) [G12] | – | well recognized
3 | CC1=NC2C(O[C@@H]3OC(C)[C@@H](O)C(O)C3O)[C@H](O[C@@H]3OC(CO)[C@H](O)C(O)C3O)C(CO)O[C@@H]2O1 (stereo partly drawn) [G20] | – | greatly reduced
